Results: ChEMBL document CHEMBL1147621, “The discovery of biaryl acids and amides exhibiting antibacterial activity against Gram-positive bacteria” (2004)
≈ marks a conversion by molar mass, not a printed value. Calls of active or inactive are those of the source. The rule behind the calls is not given here.

Key:
[1] = test system: Bacteria; test: Antibacterial activity of compound to inhibit the growth of Gram-positive bacteria; Range is 8-12 ug/mL; type: functional
[2] = test system: Pseudomonas aeruginosa; test: Antibacterial activity against Pseudomonas aeruginosa W30298; type: functional, organism-based
[3] = test system: Enterococcus faecium; test: Antibacterial activity against E. species. T66429; type: functional
[4] = test system: Staphylococcus aureus; test: Antibacterial activity against Staphylococcus aureus F2490; type: functional
[5] = test system: Staphylococcus aureus; test: Antibacterial activity of compound to inhibit the growth of Staphylococcus aureus 8325; type: functional
[6] = test system: Staphylococcus aureus; test: Antibacterial activity against Staphylococcus aureus 8325; type: functional
[7] = test system: Pseudomonas aeruginosa; test: Antibacterial activity against Pseudomonas aeruginosa W30279; type: functional, organism-based
[8] = test system: Streptococcus sp. 'group A'; test: Antibacterial activity against Grp A Strep T32098; type: functional
[9] = test system: Enterococcus faecium; test: Antibacterial activity against Enterococcus faecium F24910; type: functional
[10] = test system: Escherichia coli; test: Antibacterial activity against Escherichia coli H28233; type: functional, organism-based
[11] = test system: Streptococcus sp. 'group A'; test: Antibacterial activity against Grp A Strep S54408; type: functional
[12] = test system: Staphylococcus aureus; test: Antibacterial activity against Staphylococcus aureus W30078c; type: functional
[13] = test system: Bacteria; test: Antibacterial activity of compound to inhibit the growth of Gram-positive bacteria; type: functional
[14] = test system: Bacteria; test: Antibacterial activity of compound to inhibit the growth of Gram-positive bacteria; Range is 5-11 ug/mL; type: functional

SMILES: NC(=O)[C@H](CC1CCCCC1)NC(=O)c1ccc(Cl)c(-c2ccc(Cl)cc2)c1
- IC90 [1]: 12 µg/mL (≈ 28.6 µM)

SMILES: O=C(N[C@@H](CC1CCCCC1)C(=O)O)c1cccc(-c2ccc(-c3ccccc3)cc2)c1
- MIC [2]: inactive
- MIC [3]: 20 µg/mL (≈ 46.8 µM)
- MIC [4]: 20 µg/mL (≈ 46.8 µM)
- IC90 [5]: 4 µg/mL (≈ 9.36 µM)
- MIC [6]: 20 µg/mL (≈ 46.8 µM)
- MIC [7]: inactive
- MIC [8]: 20 µg/mL (≈ 46.8 µM)
- MIC [9]: 20 µg/mL (≈ 46.8 µM)
- MIC [10]: inactive
- MIC [11]: 10 µg/mL (≈ 23.4 µM)
- MIC [12]: 20 µg/mL (≈ 46.8 µM)

SMILES: O=C(O)c1ccc(Cl)c(-c2ccc(Cl)cc2)c1
- IC90 [13]: > 50 µg/mL

SMILES: O=C(N[C@@H](CC1CCNCC1)C(=O)O)c1ccc(Cl)c(-c2ccc(Cl)cc2)c1
- IC90 [13]: > 50 µg/mL

SMILES: COC(=O)[C@H](CC1CCCCC1)NC(=O)c1ccc(Cl)c(-c2ccc(Cl)cc2)c1
- IC90 [13]: > 50 µg/mL

SMILES: C[C@H](NC(=O)c1ccc(Cl)c(-c2ccc(Cl)cc2)c1)C(=O)O
- IC90 [13]: > 50 µg/mL

SMILES: O=C(N[C@@H](CC1CCCC1)C(=O)O)c1ccc(Cl)c(-c2ccc(Cl)cc2)c1
- IC90 [13]: 18 µg/mL (≈ 44.3 µM)

SMILES: O=C(N[C@@H](Cc1ccccc1)C(=O)O)c1ccc(Cl)c(-c2ccc(Cl)cc2)c1
- IC90 [13]: > 50 µg/mL

SMILES: O=C(N[C@H](CC1CCCCC1)C(=O)O)c1ccc(Cl)c(-c2ccc(Cl)cc2)c1
- IC90 [14]: 11 µg/mL (≈ 26.2 µM)

SMILES: O=C(O)[C@@H]1CCCCN1C(=O)c1ccc(Cl)c(-c2ccc(-c3ccccc3)cc2)c1
- IC90 [13]: 25 µg/mL (≈ 59.5 µM)

SMILES: O=C(N[C@@H](CC1CCCCC1)C(=O)O)c1ccc(Cl)c(-c2ccc(Cl)cc2)c1
- MIC [2]: inactive
- MIC [3]: 20 µg/mL (≈ 47.6 µM)
- MIC [4]: 20 µg/mL (≈ 47.6 µM)
- IC90 [5]: 10 µg/mL (≈ 23.8 µM)
- MIC [6]: 20 µg/mL (≈ 47.6 µM)
- MIC [7]: inactive
- MIC [8]: 20 µg/mL (≈ 47.6 µM)
- MIC [9]: > 20 µg/mL
- MIC [10]: inactive
- MIC [11]: 10 µg/mL (≈ 23.8 µM)
- MIC [12]: 20 µg/mL (≈ 47.6 µM)

SMILES: NC(=O)c1ccc(Cl)c(-c2ccc(-c3ccccc3)cc2)c1
- IC90 [13]: > 50 µg/mL

SMILES: Cc1ccc(C(=O)N[C@@H](CC2CCCCC2)C(=O)O)cc1-c1ccc(-c2ccccc2)cc1
- IC90 [5]: 3 µg/mL (≈ 6.79 µM)

SMILES: Cc1cc(C(=O)N[C@@H](CC2CCCCC2)C(=O)O)ccc1-c1ccc(-c2ccccc2)cc1
- IC90 [5]: 2 µg/mL (≈ 4.53 µM)

SMILES: NC(=O)c1ccc(Cl)c(-c2ccc(Cl)cc2)c1
- IC90 [13]: > 50 µg/mL

SMILES: O=C(N[C@@H](CC1CCCCC1)C(=O)O)c1ccc(Cl)c(-c2cccc(Cl)c2)c1
- MIC [2]: inactive
- MIC [3]: 20 µg/mL (≈ 47.6 µM)
- MIC [4]: 15 µg/mL (≈ 35.7 µM)
- IC90 [5]: 8 µg/mL (≈ 19 µM)
- MIC [6]: 15 µg/mL (≈ 35.7 µM)
- MIC [7]: inactive
- MIC [8]: 20 µg/mL (≈ 47.6 µM)
- MIC [9]: 20 µg/mL (≈ 47.6 µM)
- MIC [10]: inactive
- MIC [11]: 10 µg/mL (≈ 23.8 µM)
- MIC [12]: 20 µg/mL (≈ 47.6 µM)

SMILES: O=C(NC(C(=O)O)c1ccccc1)c1ccc(Cl)c(-c2ccc(-c3ccccc3)cc2)c1 (configuration not stated)
- IC90 [13]: 10 µg/mL (≈ 22.6 µM)
